According to publication PMC9867442, “Indole Derivatives Bearing Imidazole, Benzothiazole-2-Thione or Benzoxazole-2-Thione Moieties—Synthesis, Structure and Evaluation of Their Cytoprotective, Antioxidant, Antibacterial and Fungicidal Activities” (Molecules, 2023):

What was measured:
Bacillus subtilis = assay: Antibacterial well-diffusion method; type: cell-based; conditions: 0.1 mL of compound in DMSO, 48 h, 27 °C
Experimental: (§1) The antimicrobial properties of compounds were determined against selected bacteria: Micrococcus luteus, Bacillus subtilis, Escherichia coli and Pseudomonas fluorescens which came from the collection of Pure Cultures of the Facility of Microbiology of the Department of Soil Science and Microbiology of the Poznan University of Life Sciences. The well-diffusion method was used to evaluate the antimicrobial properties of compounds. 6 mL each of liquidized broth medium was poured into sterile Petri dishes and allowed to solidify. After which, two sterile glass rings with a diameter of 0.5 cm were placed on the surface of each plate. Then 20 mL each of liquid broth medium containing suspensions of the tested bacterial strains at a density of 10^7 cells/cm3, obtained from 48-h cultures on broth […], was introduced. After the medium solidified, the glass rings were removed with a pencil, obtaining two wells on each plate. 0.1 mL of compound dissolved in pure dimethyl sulphoxide was introduced into one well, and 0.1 mL of pure dimethyl sulphoxide was introduced into the other well, which was as a control. Each compound was tested in four replicates. The plates were incubated for 48 h in a thermostat at 27 °C for M. luteus, B. subtilis and P. fluorescens cultures, and the E. coli culture at 37 °C. At the end of the incubation, the diameters of growth inhibition of the tested strains were measured using calipers.

Micrococcus luteus = assay: Antibacterial well-diffusion method; type: cell-based; conditions: Micrococus luteus, 0.1 mL of compound in DMSO, 48 h, 27 °C
Experimental: as §1

Escherichia coli = assay: Antibacterial well-diffusion method; type: cell-based; conditions: 0.1 mL of compound in DMSO, 48 h, 37 °C
Experimental: as §1

Pseudomonas fluorescens = assay: Antibacterial well-diffusion method; type: cell-based; conditions: 0.1 mL of compound in DMSO, 48 h, 27 °C
Experimental: as §1

Coriolus versicolor (Cv) = assay: Antifungal agar-plate method; type: cell-based; conditions: for inhibition of growth at 0.0001 % / inhibition of growth at 0.001 % / inhibition of growth at 0.01 % / inhibition of growth at 0.1 %: Trametes versicolor, read-out: Antifungal activity (inhibition of mycelial growth)
Experimental: (§2) Fungal strains: Coriolus versicolor (Cv), Poria placenta (Pp), Coniophora puteana (Cp) and Gloeophyllum trabeum (Gt) were used as a test organism for the experimental determination of the antifungal activity of 1–11. The fungus were obtained from the collection of the Department of Wood Chemical Technology, Faculty of Forestry and Wood Technology, Poznań, University of Life Sciences, Poland. The fungal growth rates were measured in 90 mm-diameter plastic dishes using the agar-plate method, described by Ważny and Thorton. Five concentrations of gramine and its derivatives in the range of 0.1% to 0.00001% were studied. The compound was applied on the agar (2% agar and 5% malt-extract) prepared on the Petri dish and previously autoclaved. The combination of the compound and fungus was repeated three times. Given sample was centrally inoculated with a 5 mm diameter disc taken from the submargin of 5-day-old malt agar plates. The plates were incubated in darkness at 21 ± 2 °C and 70 ± 5% relative air humidity. The growth duration was determined by the total coverage of the reference plate. The radius of the area covered by the fungus compared with the reference agar plate was employed to calculate the effective doses, ED50, of preservative concentrations retarding the fungal growth rate by 50%.

Poria placenta (Pp) = assay: Antifungal agar-plate method; type: cell-based; conditions: for inhibition of growth at 0.0001 % / inhibition of growth at 0.001 % / inhibition of growth at 0.01 % / inhibition of growth at 0.1 %: read-out: Antifungal activity (inhibition of mycelial growth)
Experimental: as §2

[1] = tested on: Gloeophyllum trabeum (Gt); assay: Antifungal agar-plate method; type: cell-based; conditions: for inhibition of growth at 0.0001 % / inhibition of growth at 0.001 % / inhibition of growth at 0.01 % / inhibition of growth at 0.1 %: Gloeophyllum trabeum, read-out: Antifungal activity (inhibition of mycelial growth)
Experimental: as §2

Coniophora puteana (Cp) = assay: Antifungal agar-plate method; type: cell-based; conditions: for inhibition of growth at 0.0001 % / inhibition of growth at 0.001 % / inhibition of growth at 0.01 % / inhibition of growth at 0.1 %: Coniophora puteana, read-out: Antifungal activity (inhibition of mycelial growth)
Experimental: as §2

[2] = Ferrous ions (Fe2+) chelating activity (ferrozine); conditions: 0.1 mg/mL, 10 min, room temperature
Experimental: Ferrous ions (Fe^2+) chelating activity was evaluated by inhibition of the formation of Fe^2+-ferrozine complex after incubation of the compounds tested with Fe^2+. The Fe^2+-chelating ability of compounds tested was determined by the absorbance of the ferrous ion-ferrozine complex at 562 nm. In brief, 0.1 mg/mL concentration of the compounds tested in 0.2 mL ethyl alcohol were added to a solution of 0.6 mM FeCl2 (0.05 mL). EDTA (ethylenediaminetetraacetic acid) was used as the standard EDTA chelating agent. The reaction was started by the addition of 5 mM ferrozine (0.05 mL) in ethyl alcohol and shaken vigorously immediately. The samples were stored for 10 min at room temperature (~22 °C). Following incubation, the absorbance (Abs) of the solutions was measured at 562 nm in a spectrophotometer. The percentage of inhibition of ferrozine—Fe^2+ complex formation was calculated using the equation: Fe^2+ chelating effect (%) = [1 − (Abs1/Abs0)] × 100% where Abs0 is the absorbance of the sample without the tested compound and Abs1 is the absorbance in the presence of the compound tested. Each sample was made in triplicate, and three independent experiments were performed.

| Compound | Zone of Growth Inhibition (Bacillus subtilis) [mm] | Zone of Growth Inhibition (Micrococcus luteus) [mm] | Zone of Growth Inhibition (Escherichia coli) [mm] | Zone of Growth Inhibition (Pseudomonas fluorescens) [mm] | inhibition of growth at 0.0001 % (Coriolus versicolor (Cv); concentration 0.0001%) [%] | inhibition of growth at 0.001 % (Coriolus versicolor (Cv); concentration 0.001%) [%] | inhibition of growth at 0.01 % (Coriolus versicolor (Cv); concentration 0.01%) [%] | inhibition of growth at 0.1 % (Coriolus versicolor (Cv); concentration 0.1%) [%] | inhibition of growth at 0.0001 % (Poria placenta (Pp); concentration 0.0001%) [%] | inhibition of growth at 0.001 % (Poria placenta (Pp); concentration 0.001%) [%] | inhibition of growth at 0.01 % (Poria placenta (Pp); concentration 0.01%) [%] | inhibition of growth at 0.1 % (Poria placenta (Pp); concentration 0.1%) [%] | inhibition of growth at 0.0001 % ([1]; concentration 0.0001%) [%] | inhibition of growth at 0.001 % ([1]; concentration 0.001%) [%] | inhibition of growth at 0.01 % ([1]; concentration 0.01%) [%] | inhibition of growth at 0.1 % ([1]; concentration 0.1%) [%] | inhibition of growth at 0.0001 % (Coniophora puteana (Cp); concentration 0.0001%) [%] | inhibition of growth at 0.001 % (Coniophora puteana (Cp); concentration 0.001%) [%] | inhibition of growth at 0.01 % (Coniophora puteana (Cp); concentration 0.01%) [%] | inhibition of growth at 0.1 % (Coniophora puteana (Cp); concentration 0.1%) [%] | further results |
| --- | --- | --- | --- | --- | --- | --- | --- | --- | --- | --- | --- | --- | --- | --- | --- | --- | --- | --- | --- | --- | --- |
| 3-((2-phenyl-2,5-dihydro-1H-imidazol-1-yl)methyl)-1H-indole [Compound 8] | 3.7 | 8.6 | 5 | 0 |  |  |  |  |  |  |  |  |  |  |  |  |  |  |  |  | Antifungal activity (inhibition of mycelial growth) (Coriolus versicolor (Cv); concentration 0.0001%): 7%; Antifungal activity (inhibition of mycelial growth) (Coriolus versicolor (Cv); concentration 0.001%): 13%; Antifungal activity (inhibition of mycelial growth) (Coriolus versicolor (Cv); concentration 0.01%): 41%; Antifungal activity (inhibition of mycelial growth) (Coriolus versicolor (Cv); concentration 0.1%): 100%; Antifungal activity (inhibition of mycelial growth) (Poria placenta (Pp); concentration 0.0001%): 0%; Antifungal activity (inhibition of mycelial growth) (Poria placenta (Pp); concentration 0.001%): 17%; Antifungal activity (inhibition of mycelial growth) (Poria placenta (Pp); concentration 0.01%): 45%; Antifungal activity (inhibition of mycelial growth) (Poria placenta (Pp); concentration 0.1%): 100%; Antifungal activity (inhibition of mycelial growth) ([1]; concentration 0.0001%): 13%; Antifungal activity (inhibition of mycelial growth) ([1]; concentration 0.001%): 18%; Antifungal activity (inhibition of mycelial growth) ([1]; concentration 0.01%): 53%; Antifungal activity (inhibition of mycelial growth) ([1]; concentration 0.1%): 100%; Antifungal activity (inhibition of mycelial growth) (Coniophora puteana (Cp); concentration 0.0001%): 0%; Antifungal activity (inhibition of mycelial growth) (Coniophora puteana (Cp); concentration 0.001%): 0%; Antifungal activity (inhibition of mycelial growth) (Coniophora puteana (Cp); concentration 0.01%): 48%; Antifungal activity (inhibition of mycelial growth) (Coniophora puteana (Cp); concentration 0.1%): 100%; Chelating activity [2]: 40% |
| CN(C)Cc1c[nH]c2ccccc12 [Compound 1, gramine, reference compound] | 0 | 0 | 0 | 13 | 18 | 22 | 35 | 100 | 14 | 25 | 40 | 100 | 12 | 12 | 17 | 100 | 41 | 40 | 51 | 100 |  |
| c1ccc2c(Cn3ccnc3)c[nH]c2c1 [Compound 2] | 3.3 | 21 | 4 | 14.7 | 0 | 19 | 33 | 100 | 0 | 20 | 47 | 100 | 20 | 20 | 40 | 100 | 0 | 0 | 41 | 100 |  |
| CCc1nccn1Cc1c[nH]c2ccccc12 [Compound 4, 3-((2-ethyl-1H-imidazol-1-yl)methyl)-1H-indole] | 4.3 | 8.8 | 3.8 | 3 | 6 | 13 | 43 | 100 | 16 | 18 | 32 | 100 | 8 | 11 | 30 | 100 | 13 | 15 | 37 | 100 | melting point: 183 to 186 °C |
| CC(C)c1nccn1Cc1c[nH]c2ccccc12 [Compound 5, 3-((2-isopropyl-1H-imidazol-1-yl)methyl)-1H-indole] | 1.8 | 3 | 3 | 0 | 13 | 12 | 43 | 100 | 1 | 6 | 21 | 100 | 12 | 16 | 17 | 100 | 13 | 14 | 26 | 100 | melting point: 183 to 185 °C |
| CCc1nc(C)cn1Cc1c[nH]c2ccccc12 [Compound 6, 3-((2-ethyl-4-methyl-1H-imidazol-1-yl)methyl)-1H-indole] | 2.4 | 6 | 3.5 | 2.3 | 19 | 19 | 44 | 100 | 4 | 0 | 41 | 100 | 13 | 9 | 27 | 100 | 40 | 37 | 49 | 100 | melting point: 186 to 189 °C |
| Clc1ncn(Cc2c[nH]c3ccccc23)c1Cl [Compound 7, 3-((4,5-dichloro-1H-imidazol-1-yl)methyl)-1H-indole] | 8.7 | 5 | 4.3 | 0 | 0 | 23 | 96 | > 90 | 0 | 35 | 78 |  | 28 | 51 | 91 | > 90 | 0 | 46 | 74 |  | Chelating activity [2]: no chelating activity |
